{"source": "patent US20120231098A1", "about": "“Weight loss composition” (priority 2011, published 2012)", "origin": "cited, not measured here", "conditions": "by increasing the utilization of fat stores in the body during exercise"}
{"smiles": "Cn1c(=O)c2c(ncn2C)n(C)c1=O", "note": "[Caffeine, caffeine]", "values": [{"measurement": "increase in endurance", "value": "≥ 15", "unit": "%"}]}
